Results: ChEMBL document CHEMBL1201862, “PubChem BioAssay data set” (2004)
Calls of active or inactive are those of the source.

What was measured:
Paired box protein Pax-8 = Paired box protein Pax-8 (Homo sapiens, UniProt Q06710); experiment: inhibitors of PAX8-driven TPO luciferase reporter, dose response, RMG-I cells, cherry-pick (AID 687027); assay type: functional, cell-based;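 note: luciferase reporter driven by Pax8 target thyroperoxidase promoter measured by SteadyGlo luminescence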
[1] = inhibitors of intracellular T. cruzi replication, confirmation, NIH3T3 host cells, beta-gal luminescence (AID 2044); assay type: functional, cell-based;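 note: intracellular parasites grown in NIH/3T3 mouse fibroblasts as host cells; luminescent beta-galactosidase reporter signal from transgenic T. cruzi replicating inside host cells; inhibitors lower the luminescence signal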
[2] = cytotoxicity toward NIH3T3 fibroblasts, dose response, counter-screen, cell-based, ATP luminescence, mouse fibroblasts (AID 2010); assay type: functional;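 note: cells exposed to compound for about 90 hours before reading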
[3] = Luminescence Cell-Based Dose Retest to Confirm Inhibitors of Cancer Stem Cells. [Related pubchem assays (depositor defined):AID2717, AID2721]; assay type: functional; conditions: Homo sapiens
[4] = biological target: UDP-galactopyranose mutase (Mycobacterium tuberculosis, UniProt P9WIQ1); experiment: Inhibitors of Mycobacterium tuberculosis UDP-galactopyranose mutase (UGM) enzyme Measured in Biochemical System Using Plate Reader - 2105-02_Inhibitor_Dose_CherryPick_Activity. [Related pubchem assays (depositor defined):AID504439]
Genome polyprotein = Genome polyprotein (dengue virus type 2, UniProt P29990); experiment: Dengue-2 NS5 methyltransferase inhibitors, primary screen, biochemical, confirmation dose response (AID 588689); assay type: functional
[5] = biological target: T1, Apoptotic protease-activating factor 1 (Homo sapiens, UniProt O14727); assay type: functional
T1 sequence (O14727 whole entry): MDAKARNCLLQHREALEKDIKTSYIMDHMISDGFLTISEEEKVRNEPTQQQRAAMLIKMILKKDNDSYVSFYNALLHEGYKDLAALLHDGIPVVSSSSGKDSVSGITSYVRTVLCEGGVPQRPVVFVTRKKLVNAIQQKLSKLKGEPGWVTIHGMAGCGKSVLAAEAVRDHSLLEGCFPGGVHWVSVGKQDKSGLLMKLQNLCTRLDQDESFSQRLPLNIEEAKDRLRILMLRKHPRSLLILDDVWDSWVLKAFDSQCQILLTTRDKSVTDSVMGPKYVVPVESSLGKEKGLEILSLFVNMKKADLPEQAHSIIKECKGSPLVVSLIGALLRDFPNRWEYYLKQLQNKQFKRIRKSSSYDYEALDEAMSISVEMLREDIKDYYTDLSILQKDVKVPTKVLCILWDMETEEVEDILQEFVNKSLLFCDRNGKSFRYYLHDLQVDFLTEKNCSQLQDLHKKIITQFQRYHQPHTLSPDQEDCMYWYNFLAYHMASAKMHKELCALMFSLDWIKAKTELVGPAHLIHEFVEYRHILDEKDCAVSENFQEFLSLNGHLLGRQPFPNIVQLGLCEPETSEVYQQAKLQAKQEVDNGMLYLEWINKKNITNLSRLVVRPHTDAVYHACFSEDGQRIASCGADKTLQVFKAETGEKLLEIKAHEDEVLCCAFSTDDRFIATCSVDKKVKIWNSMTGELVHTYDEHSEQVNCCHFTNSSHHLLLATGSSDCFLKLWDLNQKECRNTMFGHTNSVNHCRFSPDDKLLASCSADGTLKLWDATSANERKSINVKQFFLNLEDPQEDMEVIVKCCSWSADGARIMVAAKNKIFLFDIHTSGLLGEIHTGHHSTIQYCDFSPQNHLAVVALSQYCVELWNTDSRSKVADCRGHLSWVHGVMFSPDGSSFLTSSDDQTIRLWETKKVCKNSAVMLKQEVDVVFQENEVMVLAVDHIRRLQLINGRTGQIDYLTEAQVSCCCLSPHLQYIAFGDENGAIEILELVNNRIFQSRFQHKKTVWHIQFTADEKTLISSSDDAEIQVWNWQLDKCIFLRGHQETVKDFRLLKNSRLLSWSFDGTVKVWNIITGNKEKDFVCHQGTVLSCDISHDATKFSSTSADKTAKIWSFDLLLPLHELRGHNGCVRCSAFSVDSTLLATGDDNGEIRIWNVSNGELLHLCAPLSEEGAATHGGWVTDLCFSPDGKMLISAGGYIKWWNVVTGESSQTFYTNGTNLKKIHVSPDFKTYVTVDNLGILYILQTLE

Chain of Paired box protein Pax-8 (Q06710 whole entry): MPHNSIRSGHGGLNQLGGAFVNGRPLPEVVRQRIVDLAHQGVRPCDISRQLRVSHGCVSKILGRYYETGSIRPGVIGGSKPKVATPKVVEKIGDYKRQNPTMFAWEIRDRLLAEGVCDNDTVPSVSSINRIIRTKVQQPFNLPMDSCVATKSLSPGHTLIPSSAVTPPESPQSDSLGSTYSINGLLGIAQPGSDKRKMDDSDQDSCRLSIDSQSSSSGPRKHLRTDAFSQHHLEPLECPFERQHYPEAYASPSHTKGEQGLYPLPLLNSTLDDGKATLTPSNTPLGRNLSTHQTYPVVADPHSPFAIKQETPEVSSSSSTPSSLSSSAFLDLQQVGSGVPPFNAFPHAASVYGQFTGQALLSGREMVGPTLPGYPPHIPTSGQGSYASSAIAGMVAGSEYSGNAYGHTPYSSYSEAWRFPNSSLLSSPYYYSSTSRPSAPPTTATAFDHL
Chain of UDP-galactopyranose mutase (P9WIQ1 whole entry): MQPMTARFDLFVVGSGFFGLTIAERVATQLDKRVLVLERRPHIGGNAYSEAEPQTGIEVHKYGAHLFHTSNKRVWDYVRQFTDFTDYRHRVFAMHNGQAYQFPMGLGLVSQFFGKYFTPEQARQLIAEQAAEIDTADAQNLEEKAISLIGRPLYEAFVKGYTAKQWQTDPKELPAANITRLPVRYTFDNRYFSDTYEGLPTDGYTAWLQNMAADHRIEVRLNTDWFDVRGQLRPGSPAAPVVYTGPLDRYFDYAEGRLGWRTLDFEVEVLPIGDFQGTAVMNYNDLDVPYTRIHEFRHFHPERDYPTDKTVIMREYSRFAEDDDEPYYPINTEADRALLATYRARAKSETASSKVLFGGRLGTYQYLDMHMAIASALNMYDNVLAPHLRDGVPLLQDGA
Chain of Genome polyprotein (P29990 2492-3391 limits assumed): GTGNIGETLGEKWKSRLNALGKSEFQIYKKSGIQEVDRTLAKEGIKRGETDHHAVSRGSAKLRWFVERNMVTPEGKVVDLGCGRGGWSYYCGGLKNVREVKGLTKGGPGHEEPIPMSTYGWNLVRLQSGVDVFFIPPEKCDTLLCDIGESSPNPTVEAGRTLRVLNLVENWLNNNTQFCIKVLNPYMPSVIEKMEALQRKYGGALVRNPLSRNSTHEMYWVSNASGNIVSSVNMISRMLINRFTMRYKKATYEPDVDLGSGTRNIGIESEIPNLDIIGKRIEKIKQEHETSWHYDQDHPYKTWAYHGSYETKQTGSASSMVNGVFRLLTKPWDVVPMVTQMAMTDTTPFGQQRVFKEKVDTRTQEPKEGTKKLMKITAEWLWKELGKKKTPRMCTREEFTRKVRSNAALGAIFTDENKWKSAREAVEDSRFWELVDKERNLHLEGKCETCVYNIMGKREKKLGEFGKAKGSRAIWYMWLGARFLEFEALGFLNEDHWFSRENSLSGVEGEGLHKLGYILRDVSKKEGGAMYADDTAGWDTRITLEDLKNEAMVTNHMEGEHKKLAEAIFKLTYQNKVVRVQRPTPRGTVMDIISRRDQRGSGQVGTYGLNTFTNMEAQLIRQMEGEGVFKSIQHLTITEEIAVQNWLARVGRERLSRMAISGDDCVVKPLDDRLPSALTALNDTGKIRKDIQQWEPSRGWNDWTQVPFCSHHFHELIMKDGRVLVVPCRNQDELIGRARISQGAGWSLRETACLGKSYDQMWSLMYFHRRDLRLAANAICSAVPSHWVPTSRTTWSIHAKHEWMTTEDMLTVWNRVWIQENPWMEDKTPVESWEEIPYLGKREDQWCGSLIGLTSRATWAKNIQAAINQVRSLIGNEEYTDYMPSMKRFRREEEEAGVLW

CCSc1nsc(NC(=O)Nc2cccc(F)c2)n1
AC50 (Paired box protein Pax-8): 5.73 µM (active)

O=[N+]([O-])c1ccc(/C=N/n2cnc3ccccc32)s1
EC50 [1]: 0.257 µM (active)
EC50 [2]: 5.46 µM (active)
AC50 [3]: 3.84 µM (active)
AC50 [4]: 148 µM (active)

CC(C)c1ccc(S(=O)(=O)/N=C2\C=C(NS(=O)(=O)c3ccccc3)C(=O)c3ccccc32)cc1
IC50 (Genome polyprotein): 25.7 µM (active)

COc1ccc(CNC(=O)c2c(C)oc3c2C(=O)c2ccccc2C3=O)cc1
IC50 [5]: 23.1 µM (active)
